Experimental data reported in patent US5227153A, “Use of 4-(2-oxo-3-bornylidenemethyl)benzenesulfphonic acid or its salts for the protection of hair against environmental attacking agents, and in particular against light, and process for the protection of hair using this compound” (L'Oreal, priority 1988, dated 1993).

Tests used:
[1] = Mechanical properties of hair after exposure in natural light and artificial xenon light; settings: natural light (sunny environment) and artificial light (xenon, SUNTEST HANAU)
Source text: (§1) The 15% extension level is the weight to be applied to wet hair of given length to extend it by 15%. The higher the weight, the stronger and more elastic the hair.
It has been possible to reveal this property by exposure in natural light (sunny environment) and artificial light (xenon light emitter in a SUNTEST HANAU type accelerated aging apparatus).

[2] = 15% wet extension level of bleached hair after exposure to light (SUNTEST HANAU xenon apparatus)
Description: as §1
This composition is applied to bleached hair, then rinsed. The hair is then exposed to the Suntest by means of a "SUNTEST HANAU" apparatus for 120 hours. This apparatus consists of a xenon light emitter and a system of filters producing a radiation corresponding to a very large extend to solar radiation. The energy radiation is about 585 W/m^2 in the wavelength range between 300 and 830 nm (overall radiation).
After applying this foam to bleached hair three times and without consecutive rinsing, the hair is exposed to the Suntest as described in Example 1 for 180 hours.
Bleached hair treated with one application of this spray and not rinsed is then exposed to the Suntest under the conditions described in Example 1 for 120 hours.
Bleached hair treated with one application of this gel and not rinsed is then exposed to the Suntest under the conditions described in Example 1 for 120 hours.

For CC12CCC(C(=Cc3ccc(S(=O)(=O)O)cc3)C1=O)C2(C)C (centres unmarked) [4-(2-oxo-3-bornylidenemethyl)benzenesulphonic acid], the “preservation of the mechanical properties of hair from degradation by light” value [1] was “can preserve the mechanical properties of hair”, the “improvement in the mean value of the 15% wet extension level” value ([2]; rinse composition with 5 g per 100 g of the acid, rinsed, Suntest 120 hours, compared to same rinse containing no acid) was “very significantly improved” and the “improvement in the mean value of the 15% wet extension level” value ([2]; styling foam with 1.5 g per 100 g of the acid (90 g composition + 10 g propellant), applied three times, not rinsed, Suntest 180 hours, compared to same foam containing no acid) was “appreciable improvement”. For the same molecule, the “improvement in the mean value of the 15% wet extension level” value ([2]; styling gel with 0.4 g per 100 g of the acid, one application, not rinsed, Suntest 120 hours, compared to same gel without the acid) was “appreciable improvement” and the “improvement in the mean value of the 15% wet extension level” value ([2]; styling spray with 1 g per 100 g of the acid, one application, not rinsed, Suntest 120 hours, compared to same spray containing no acid) was “significant improvement”.
